Source: patent US4537777A, “A52688 Antibiotics and process for their production” (priority 1983, dated 1985)
Read-outs that look alike come from different tables or passages of the source.

Assays:
Staphylococcus aureus = test: standard disc-plate assay; assay type: cell-based; settings: read-out: Zone Diameters
Bacillus subtilis = test: standard disc-plate assay; assay type: cell-based; settings: read-out: Zone Diameters
Micrococcus luteus = test: standard disc-plate assay; assay type: cell-based; settings: read-out: Zone Diameters
Mycobacterium avium = test: standard disc-plate assay; assay type: cell-based; settings: read-out: Zone Diameters
[1] = test system: Saccharomyces pastorianus; test: standard disc-plate assay; assay type: cell-based; settings: read-out: Zone Diameters
Neurospora crassa = test: standard disc-plate assay; assay type: cell-based; settings: read-out: Zone Diameters
Candida albicans = test: standard disc-plate assay; assay type: cell-based; settings: read-out: Zone Diameters
[2] = test system: Trichophyton mentagroprophytes; test: standard disc-plate assay; assay type: cell-based; settings: read-out: Zone Diameters
Proteus vulgaris = test: standard disc-plate assay; assay type: cell-based; settings: read-out: Zone Diameters
Salmonella gallinarium = test: standard disc-plate assay; assay type: cell-based; settings: read-out: Zone Diameters
Escherichia coli = test: standard disc-plate assay; assay type: cell-based
Protocol: In Table IX the standard discplate-assay activity of the A52688 factors is summarized. Activity is measured as the diameter (in mm) of the observed zone of inhibition; the diameter of the disc used in each case was 6.35 mm.

Pseudomonas solanacearum = test: microbe, parasite or virus in culture; assay type: cell-based; settings: Ralstonia solanacearum, read-out: Zone Diameters
[3] = test system: Bacillus stereothermophilus; test: standard disc-plate assay; assay type: cell-based; settings: read-out: Zone Diameters
Adenocarcinoma 755 = test: murine-transplanted tumor adenocarcinoma 755 in mice; assay type: in vivo; settings: daily for 10 days
Protocol: A52688 factors A, C, D, E, F, G, H, J and K and the specified acyl esters of factors A, C, D, E, G, H, J and K are especially useful as oncolytic agents.
Table X summarizes the results of experiments in which mice bearing the murine-transplanted tumor adenocarcinoma 755 were treated with compounds of this invention. In each test the compound was administered by the intraperitoneal route at specified dose levels. The compound was administered over a ten-day period, either on a daily basis or on days one, five and nine, as indicated.

acute toxicity in mice = settings: mouse, in vivo, ip, intraperitoneal, formulated in aqueous PVP, read-out: Intraperitoneal LD50
Description: ^a Compounds formulated in aqueous PVP
^b Route test compound administered

Pseudomonas aeruginosa = test: standard disc-plate assay; assay type: cell-based; settings: read-out: Zone Diameters
Serratia marcescens = test: standard disc-plate assay; assay type: cell-based; settings: read-out: Zone Diameters
[4] = conc 0.1 mg/ml, disc 6.35 mm, ^b overgrowth: factor B
[5] = conc 0.1 mg/ml, disc 6.35 mm, ^b overgrowth: factor F
[6] = conc 0.1 mg/ml, disc 6.35 mm, ^b overgrowth: factors B, C, F
[7] = conc 0.1 mg/ml, disc 6.35 mm, ^b overgrowth: factors A, C, E, F, G
[8] = conc 0.1 mg/ml, disc 6.35 mm, read-out: Zone Diameters

[C-]#[N+]C(=CC1CCC(OC(=O)C=C(C)C)CC1)C(=CC1(OC(C)=O)C=CC(=O)CC1)[N+]#[C-] (stereo not drawn) [Factor F]
zone of inhibition at 100 µg/mL (Staphylococcus aureus; [4]): 26 mm
zone of inhibition at 100 µg/mL (Bacillus subtilis; conc 0.1 mg/ml, disc 6.35 mm): 27 mm
zone of inhibition at 100 µg/mL (Micrococcus luteus; conc 0.1 mg/ml, disc 6.35 mm): 30 mm
zone of inhibition at 100 µg/mL (Mycobacterium avium; [5]): 17 mm
zone of inhibition at 100 µg/mL [1, 6]: 22 mm
zone of inhibition at 100 µg/mL (Neurospora crassa; conc 0.1 mg/ml, disc 6.35 mm): 33 mm
zone of inhibition at 100 µg/mL (Candida albicans; conc 0.1 mg/ml, disc 6.35 mm): 21 mm
zone of inhibition at 100 µg/mL ([2]; conc 0.1 mg/ml, disc 6.35 mm): 20 mm
zone of inhibition at 100 µg/mL (Proteus vulgaris; [7]): 20 mm
zone of inhibition at 100 µg/mL (Salmonella gallinarium; conc 0.1 mg/ml, disc 6.35 mm): 11 mm
zone of inhibition at 100 µg/mL (Escherichia coli; [8]): 17 mm
zone of inhibition at 100 µg/mL (Pseudomonas solanacearum): 10 mm
zone of inhibition at 100 µg/mL ([3]; conc 0.1 mg/ml, disc 6.35 mm): 27 mm
Percent Tumor Inhibition (Adenocarcinoma 755; 0.25 mg/kg i.p.): 51%
Toxic Deaths (Adenocarcinoma 755; 0.25 mg/kg i.p., of 10 mice tested (9 for factor E)): 0
Percent Tumor Inhibition (Adenocarcinoma 755; 0.50 mg/kg i.p.): 69%
Toxic Deaths (Adenocarcinoma 755; 0.50 mg/kg i.p., of 10 mice tested (8 for factor E)): 0
Percent Tumor Inhibition (Adenocarcinoma 755; 1.00 mg/kg i.p.): 91%
Toxic Deaths (Adenocarcinoma 755; 1.00 mg/kg i.p., of 10 (factor E) or 9 (factor F) mice tested): 2
Percent Tumor Inhibition (Adenocarcinoma 755; 2.00 mg/kg i.p.): toxic
Toxic Deaths (Adenocarcinoma 755; 2.00 mg/kg i.p., of 10 mice tested): 10
LD50 (acute toxicity in mice): 5 mg/kg

O=CNC=Cc1ccc(O)cc1 [Factor B]
zone of inhibition at 100 µg/mL (Staphylococcus aureus; [4]): 25 mm
zone of inhibition at 100 µg/mL (Bacillus subtilis; conc 0.1 mg/ml, disc 6.35 mm): 21 mm
zone of inhibition at 100 µg/mL (Micrococcus luteus; conc 0.1 mg/ml, disc 6.35 mm): 22 mm
zone of inhibition at 100 µg/mL [1, 6]: 14 mm
zone of inhibition at 100 µg/mL (Neurospora crassa; conc 0.1 mg/ml, disc 6.35 mm): 24 mm
zone of inhibition at 100 µg/mL (Candida albicans; conc 0.1 mg/ml, disc 6.35 mm): 11 mm
zone of inhibition at 100 µg/mL ([2]; conc 0.1 mg/ml, disc 6.35 mm): 19 mm
zone of inhibition at 100 µg/mL ([3]; conc 0.1 mg/ml, disc 6.35 mm): 21 mm
LD50 (acute toxicity in mice): > 75 mg/kg

[C-]#[N+]C(=CC1=C[C@@H](OC(C)=O)[C@H](O)CC1)C(=CC1CCC(OC(=O)C=C(C)C)CC1)[N+]#[C-] (relative stereo) [Factor H]
zone of inhibition at 100 µg/mL (Staphylococcus aureus; [4]): 20 mm
zone of inhibition at 100 µg/mL (Bacillus subtilis; conc 0.1 mg/ml, disc 6.35 mm): 16 mm
zone of inhibition at 100 µg/mL (Micrococcus luteus; conc 0.1 mg/ml, disc 6.35 mm): 27 mm
zone of inhibition at 100 µg/mL (Mycobacterium avium; [5]): 10 mm
zone of inhibition at 100 µg/mL [1, 6]: 16 mm
zone of inhibition at 100 µg/mL (Neurospora crassa; conc 0.1 mg/ml, disc 6.35 mm): 33 mm
zone of inhibition at 100 µg/mL (Candida albicans; conc 0.1 mg/ml, disc 6.35 mm): 18 mm
zone of inhibition at 100 µg/mL ([2]; conc 0.1 mg/ml, disc 6.35 mm): 35 mm
zone of inhibition at 100 µg/mL (Proteus vulgaris; [7]): 17 mm
zone of inhibition at 100 µg/mL (Salmonella gallinarium; conc 0.1 mg/ml, disc 6.35 mm): 16 mm
zone of inhibition at 100 µg/mL (Escherichia coli; [8]): 15 mm
zone of inhibition at 100 µg/mL (Escherichia coli; in minimal medium, conc 0.1 mg/ml, disc 6.35 mm, read-out: Zone Diameters): 10 mm
zone of inhibition at 100 µg/mL (Pseudomonas aeruginosa; conc 0.1 mg/ml, disc 6.35 mm): 11 mm
zone of inhibition at 100 µg/mL (Serratia marcescens; conc 0.1 mg/ml, disc 6.35 mm, ^b overgrowth: factor C): 10 mm
zone of inhibition at 100 µg/mL (Pseudomonas solanacearum): 18 mm
zone of inhibition at 100 µg/mL ([3]; conc 0.1 mg/ml, disc 6.35 mm): 24 mm

[C-]#[N+]C(=CC1=C[C@@H](OC)[C@@H](O)CC1)C(=CC1CCC(OC(=O)C=C(C)C)CC1)[N+]#[C-] (relative stereo) [Factor J]
zone of inhibition at 100 µg/mL (Staphylococcus aureus): 23 mm
zone of inhibition at 100 µg/mL (Bacillus subtilis): 19 mm
zone of inhibition at 100 µg/mL (Micrococcus luteus): 29 mm
zone of inhibition at 100 µg/mL (Mycobacterium avium): 14 mm
zone of inhibition at 100 µg/mL [1]: 19 mm
zone of inhibition at 100 µg/mL (Neurospora crassa): 36 mm
zone of inhibition at 100 µg/mL (Candida albicans): 22 mm
zone of inhibition at 100 µg/mL [2]: 37 mm
zone of inhibition at 100 µg/mL (Proteus vulgaris): 22 mm
zone of inhibition at 100 µg/mL (Salmonella gallinarium): 17 mm
zone of inhibition at 100 µg/mL (Escherichia coli; read-out: Zone Diameters, conc 0.1 mg/ml, disc 6.35 mm): 15 mm
zone of inhibition at 100 µg/mL (Escherichia coli; read-out: Zone Diameters, in minimal medium, conc 0.1 mg/ml, disc 6.35 mm): 13 mm
zone of inhibition at 100 µg/mL (Pseudomonas aeruginosa): 12 mm
zone of inhibition at 100 µg/mL (Serratia marcescens): 12 mm
zone of inhibition at 100 µg/mL (Pseudomonas solanacearum; conc 0.1 mg/ml): 21 mm
zone of inhibition at 100 µg/mL [3]: 25 mm
